In brackets after ≈: the same amount, converted by molar mass. Activity calls are given as the source filed them. The calls are words filed in the database; no cut-off is given here. *1 amine or outer side, *2 acyl side, *3 side chain or, on linkers, in order; H or OH if unused. Where a SMILES comes first, the peptide text is derived from it. Bridges are numbered along the chain shown (N, C = ends). Side-chain parts run from the residue outwards. [ ]: non-standard residue; d: D form. The star is where a group is joined. X1 = C[C@@H](O)[C@H](CN([C@@H](CCN)C(=O)[*:2])[*:1])N[*:3]; Octanoyl(6-Me) = CCC(C)CCCCC(=O)*; Dab = NCC[C@H](N)C(=O)O
Assays:
Staphylococcus aureus [1] = assay: Antibacterial activity against Staphylococcus aureus; assay type: functional
[2] = Hemolytic activity in red blood cells (unknown origin); assay type: toxicity, cell-based, Erythrocyte
[3] = Selectivity index, ratio of HC50 for RBC (unknown origin) to MIC for Staphylococcus aureus; assay type: toxicity, cell-based; conditions: red blood cells; read-out: Selectivity Index
Escherichia coli [4] = assay: Antimicrobial activity against Escherichia coli assessed as inhibition of growth incubated for 18 hrs by CLSI guidelines based assay; assay type: functional
[5] = Cytotoxicity against human Gastric mucosal cells measured after 24 hrs by CCK-8 assay; assay type: toxicity, cell-based, Gastric mucosal cell
Staphylococcus aureus [6] = assay: Antibacterial activity against methicillin-resistant Staphylococcus aureus; assay type: functional
[7] = Selectivity index, ratio of HC50 for human erythrocytes to MIC for methicillin-resistant Staphylococcus aureus; assay type: toxicity, cell-based, RBC; conditions: read-out: Selectivity Index
Staphylococcus aureus [8] = assay: Antimicrobial activity against Staphylococcus aureus assessed as inhibition of growth incubated for 18 hrs by CLSI guidelines based assay; assay type: functional
[9] = Hemolytic activity in sheep red blood cells measured after 1 hr incubation; assay type: toxicity, cell-based, Ovis aries, Erythrocyte
[10] = Selectivity index, ratio of HC50 for sheep red blood cells to MIC for Staphylococcus aureus; assay type: toxicity, cell-based, RBC; conditions: read-out: Selectivity Index
Staphylococcus aureus [11] = assay: Antibacterial activity against NDM-1 gene-resistant Staphylococcus aureus assessed as inhibition of bacterial growth incubated for 18 hrs by CLSI guidelines based assay; assay type: functional
Staphylococcus aureus [12] = assay: Resistance development in Staphylococcus aureus assessed as increase in MIC measured after 20 passages of continues culture; assay type: functional
Cell membrane = assay: Induction of Cytoplasmic membrane depolarization in Staphylococcus aureus assessed as increase in fluorescence intensity measured at 6 times of MIC measured after 4 hrs by DiSC3(5) dye-based fluorescence assay; assay type: subcellular
Staphylococcus aureus [13] = assay: Antibacterial activity against methicillin-resistant Staphylococcus aureus assessed as inhibition of bacterial growth measured immediately after addition in presence of plasma; assay type: functional, organism-based
Staphylococcus aureus [14] = assay: Bactericidal activity against early exponential phase Staphylococcus aureus assessed as bacterial killing at 6 ug/ml incubated for 4 hrs by time-kill assay; assay type: functional, organism-based; conditions: dose 6.0 µg/ml
Staphylococcus aureus [15] = assay: Bactericidal activity against early exponential phase Staphylococcus aureus assessed as bacterial killing at 6 ug/ml incubated for 12 hrs by time-kill assay; assay type: functional, organism-based; conditions: dose 6.0 µg/ml
Staphylococcus aureus [16] = assay: Anti-biofilim activity against Staphylococcus aureus biofilm assessed bio-film thickness at 32 ug/ml measured after 24 hrs incubation by SYTO 9 staining based […] laser scanning microscopy (CLSM) (reference value: 29.5 microm); assay type: functional; conditions: dose 32 µg/ml
Staphylococcus aureus [17] = assay: Anti-bacterial activity against 100 times rifampicin induced persistent cells of Staphylococcus aureus assessed as reduction in persistent cells at 32 times of MIC; assay type: functional
Staphylococcus aureus [18] = assay: In vivo antibacterial activity against methicillin-resistant Staphylococcus aureus subcutaneously infected in SPF female Kunming mouse model assessed as bacteria count in dissected mouse at 10 mg/kg/day injected into blister after 6 hrs of infection measured after 6 consecutive treatments; assay type: functional, organism-based
[19] = Hemolytic activity in human erythrocytes; assay type: toxicity, cell-based, Erythrocyte
Enterococcus faecalis = assay: Antimicrobial activity against Enterococcus faecalis assessed as inhibition of growth incubated for 18 hrs by CLSI guidelines based assay; assay type: functional
[20] = test system: Stenotrophomonas maltophilia; assay: Antimicrobial activity against Stenotrophomonas maltophilia assessed as inhibition of growth incubated for 18 hrs by CLSI guidelines based assay; assay type: functional
Staphylococcus aureus [21] = assay: Antibacterial activity against methicillin-resistant Staphylococcus aureus assessed as inhibition of bacterial growth incubated for 18 hrs by CLSI guidelines based assay; assay type: functional
Escherichia coli [22] = assay: Bactericidal activity against early exponential phase Escherichia coli assessed as bacterial killing at 6 ug/ml incubated for 6 hrs by time-kill assay; assay type: functional, organism-based; conditions: dose 6.0 µg/ml
Escherichia coli [23] = assay: Bactericidal activity against early exponential phase Escherichia coli assessed as bacterial killing at 6 ug/ml incubated for 12 hrs by time-kill assay; assay type: functional, organism-based; conditions: dose 6.0 µg/ml
Escherichia coli [24] = assay: Bactericidal activity against late exponential phase Escherichia coli assessed as bacterial killing by measuring bacterial count at 8 ug/ml incubated for 12 hrs by time-kill assay (reference value: 10^8.4 CFU/ml); assay type: functional; conditions: dose 8 µg/ml

CCCCCCCNC(=O)C[N+](C)(C)CCCCCCCCCCCC[N+](C)(C)CC(=O)NCCCCCCC.[Br-].[Br-]
MIC (Staphylococcus aureus [1]): 0.5 µg/mL | HC50 [2]: 1220 µg/mL | selectivity ratio [3]: 2440 | MIC (Escherichia coli [4]): 0.062 µg/mL | CC50 at 24 h [5]: 38.1 µg/mL

CCCCCCN(Cc1ccc(-c2ccc(CN(CCCCCC)C(=O)[C@@H](N)CCCCN)cc2)cc1)C(=O)[C@@H](N)CCCCN.O=C(O)C(F)(F)F.O=C(O)C(F)(F)F.O=C(O)C(F)(F)F.O=C(O)C(F)(F)F
MIC (Staphylococcus aureus [6]): 3.1 µg/mL | selectivity ratio [7]: 74.2

CCCCCCNC(=O)C[N+](C)(C)CCCCCCCCCCCC[N+](C)(C)CC(=O)NCCCCCC.[Br-].[Br-]
MIC (Staphylococcus aureus [1]): 1 µg/mL | HC50 [2]: 805 µg/mL | selectivity ratio [3]: 805 | MIC (Staphylococcus aureus [8]): 1 µg/mL | HC50 at 1 h [9]: > 1280 µg/mL | selectivity ratio [10]: > 1280 | CC50 at 24 h [5]: 19.1 µg/mL

CC[C@H]1OC(=O)[C@H](C)[C@@H](O[C@H]2C[C@@](C)(OC)[C@@H](O)[C@H](C)O2)[C@H](C)[C@@H](O[C@@H]2O[C@H](C)C[C@H](N(C)C)[C@H]2O)[C@](C)(O)C[C@@H](C)C(=O)[C@H](C)[C@@H](O)[C@]1(C)O [ERYTHROMYCIN]
MIC90 (Staphylococcus aureus [11]): > 32 µg/mL

CC(C)CCCCC(=O)N[C@@H](CCN)C(=O)N[C@@H](CN[C@@H](CCN)C(=O)N[C@H]1CCNC(=O)[C@H]([C@@H](C)O)NC(=O)[C@H](CCN)NC(=O)[C@H](CCN)NC(=O)[C@H](CC(C)C)NC(=O)[C@@H](CC(C)C)NC(=O)[C@H](CCN)NC1=O)[C@@H](C)O.CCC(C)CCCCC(=O)N[C@@H](CCN)C(=O)N[C@@H](CN[C@@H](CCN)C(=O)N[C@H]1CCNC(=O)[C@H]([C@@H](C)O)NC(=O)[C@H](CCN)NC(=O)[C@H](CCN)NC(=O)[C@H](CC(C)C)NC(=O)[C@@H](CC(C)C)NC(=O)[C@H](CCN)NC1=O)[C@@H](C)O (stereo partly drawn) (H-[X1]([Dab-Octanoyl(6-Me)])[Dab][Dab][dL]L[Dab][Dab]T; lactam 2-C)
MIC (Staphylococcus aureus [12]): 4 µg/mL

CC[C@H](C)[C@H](NC(=O)CN)C(=O)NCC(=O)N[C@@H](C)C(=O)N[C@H](C(=O)N[C@@H](CC(C)C)C(=O)N[C@@H](CCCCN)C(=O)N[C@H](C(=O)N[C@@H](CC(C)C)C(=O)N[C@H](C(=O)N[C@H](C(=O)NCC(=O)N[C@@H](CC(C)C)C(=O)N1CCC[C@H]1C(=O)N[C@@H](C)C(=O)N[C@@H](CC(C)C)C(=O)N[C@H](C(=O)N[C@@H](CO)C(=O)N[C@@H](Cc1c[nH]c2ccccc12)C(=O)N[C@H](C(=O)N[C@@H](CCCCN)C(=O)N[C@@H](CCCNC(=N)N)C(=O)N[C@@H](CCCCN)C(=O)N[C@@H](CCCNC(=N)N)C(=O)N[C@@H](CCC(N)=O)C(=O)N[C@@H](CCC(N)=O)C(N)=O)[C@@H](C)CC)[C@@H](C)CC)[C@@H](C)O)[C@@H](C)O)C(C)C)C(C)C
Activity (Cell membrane): Active

CN[C@H](CC(C)C)C(=O)N[C@H]1C(=O)N[C@@H](CC(N)=O)C(=O)N[C@H]2C(=O)N[C@H]3C(=O)N[C@H](C(=O)N[C@H](C(=O)O)c4cc(O)cc(O)c4-c4cc3ccc4O)[C@H](O)c3ccc(c(Cl)c3)Oc3cc2cc(c3O[C@@H]2O[C@H](CO)[C@@H](O)[C@H](O)[C@H]2O[C@H]2C[C@](C)(N)[C@H](O)[C@H](C)O2)Oc2ccc(cc2Cl)[C@H]1O [VANCOMYCIN]
MIC (Escherichia coli [4]): 2 µg/mL (≈ 1.38 µM) | HC50 at 1 h [9]: 805 µg/mL | Activity (Staphylococcus aureus [13]): Active | Activity (Staphylococcus aureus [14]): Active | Activity (Staphylococcus aureus [15]): Active | Activity (Staphylococcus aureus [16]): 22.1 um | Activity (Staphylococcus aureus [17]): 3.2 log10CFU/ml | Activity (Staphylococcus aureus [18]): Active

CO[C@H]1/C=C/O[C@@]2(C)Oc3c(C)c(O)c4c(O)c(c(/C=N/N5CCN(C)CC5)c(O)c4c3C2=O)NC(=O)/C(C)=C\C=C\[C@H](C)[C@H](O)[C@@H](C)[C@@H](O)[C@@H](C)[C@H](OC(C)=O)[C@@H]1C [RIFAMPIN]
MIC90 (Staphylococcus aureus [11]): > 32 µg/mL

CNC(C)[C@@H]1CC[C@@H](N)[C@@H](O[C@H]2[C@H](O)[C@@H](O[C@H]3OC[C@](C)(O)[C@H](NC)[C@H]3O)[C@H](N)C[C@@H]2N)O1.CN[C@@H]1[C@@H](O)[C@@H](O[C@@H]2[C@@H](O)[C@H](O[C@H]3O[C@H](C(C)N)CC[C@H]3N)[C@@H](N)C[C@H]2N)OC[C@]1(C)O.CN[C@@H]1[C@@H](O)[C@@H](O[C@@H]2[C@@H](O)[C@H](O[C@H]3O[C@H](CN)CC[C@H]3N)[C@@H](N)C[C@H]2N)OC[C@]1(C)O (stereo partly drawn)
MIC90 (Staphylococcus aureus [11]): > 32 µg/mL

CCn1cc(C(=O)O)c(=O)c2cc(F)c(N3CCNCC3)cc21 [NORFLOXACIN]
MIC (Staphylococcus aureus [12]): 4 µg/mL

CCCCCCN(CCCOc1ccccc1-c1ccccc1OCCCN(CCCCCC)C(=O)[C@@H](N)CCCCN)C(=O)[C@@H](N)CCCCN.Cl.Cl.Cl.Cl
MIC (Staphylococcus aureus [6]): 0.5 µg/mL | HC50 [19]: > 1000 µg/mL | selectivity ratio [7]: > 2000

C[N+](C)(CCCCCOc1cc(OCCCCC[N+](C)(C)CCCCOc2ccccc2)cc(OCCCCC[N+](C)(C)CCCCOc2ccccc2)c1)CCCCOc1ccccc1.[Br-].[Br-].[Br-]
MIC (Staphylococcus aureus [8]): 1 µg/mL | MIC (Enterococcus faecalis): 2 µg/mL | MIC (Escherichia coli [4]): 2 µg/mL | MIC [20]: 4 µg/mL | HC50 at 1 h [9]: > 1280 µg/mL | selectivity ratio [10]: > 1280 | CC50 at 24 h [5]: < 30 µg/mL

C[C@H]1c2cccc(O)c2C(=O)C2=C(O)[C@]3(O)C(=O)C(C(N)=O)=C(O)[C@@H](N(C)C)[C@@H]3[C@@H](O)[C@@H]21 [DOXYCYCLINE ANHYDROUS]
MIC90 (Staphylococcus aureus [21]): ≥ 16 µg/mL | MIC90 (Staphylococcus aureus [11]): > 32 µg/mL

CO[C@@]1(NC(=O)C(C(=O)O)c2ccc(O)cc2)C(=O)N2C(C(=O)O)=C(CSc3nnnn3C)CO[C@@H]21 (stereo partly drawn) [MOXALACTAM]
Activity (Escherichia coli [22]): Active | Activity (Escherichia coli [23]): Active | Activity (Escherichia coli [24]): 1 10^4CFU/ml

Reference: ChEMBL document CHEMBL6071176, “Development of Phloroglucinol-Linked Tris-Quaternary Ammonium Salt Antimicrobial Peptide Mimics with Low Cytotoxicity and Broad-Spectrum Antibacterial Activity” (J Med Chem, 2024)
